# Columns and labels:
# Format in all cases: cell-based, mouse
# C3H10T1/2 cells [1] = assay: ALP (alkaline phosphatase) production during differentiation of C3H10T1/2 cells into osteoblasts (ALP staining, -b value)
# Method: The C3H10T1/2 cells derived from mouse embryo fibroblasts are pluripotent stem cells that can differentiate into various cell lineages including osteoblasts. Because one of the characteristics of osteoblasts is the ALP (alkaline phosphatase) activity, the differentiation of the C3H10T1/2 cells into osteoblasts was measured based on the ALP activity.
# The C3H10T1/2 cells were cultured with a DMEM medium supplemented with 10% FBS and 1% penicillin/streptomycin under the condition of 37° C. and 5% CO2. The C3H10T1/2 cells were cultured on a 6-well plate at a concentration of 2.5×10^4/mL with a medium containing 10 mM β-glycerophosphate and 50 μg/mL ascorbic acid for osteocyte differentiation. The differentiation was performed for 9 days after adding the NK11 compound at 0.1, 0.5, 1 and 5 μM, while replacing the medium with 3-day intervals. Then, ALP staining was performed using 5-bromo-4-chloro-3-indolyl phosphate/nitro blue tetrazolium (BCIP/NBT).
# Then, the Lab color space was measured using the image files of the ALP-stained well plate.
# C3H10T1/2 cells [2] = assay: Fat production during differentiation of C3H10T1/2 cells into adipocytes (Oil Red O staining); details: for effect of inhibiting adipocyte differentiation: Test Example 3: NK11 at 1 μM, other compounds at 5 μM, vs negative control group (DMSO)
# Method: After plating the cells on a 6-well plate in the same manner as in Test Example 1, they were cultured for 9 days in a medium containing 1 μM dexamethasone, 5 μg/mL insulin and 1 μM troglitazone for adipocyte differentiation after adding the NK11 compound at 0.1, 0.5, 1 and 5 μM. After completion of differentiation, the medium was removed and the cells were fixed with 10% neutral buffered formalin and stained with 0.5% Oil Red O solution.
# Then, the Lab color space was measured using the image files of the Oil Red O-stained well plate.
# [3] = tested on: PPARγ, aP2 and CD36 mRNAs in C3H10T1/2 cells; assay: mRNA expression of adipocyte differentiation factors PPARγ, aP2 and CD36 (real-time PCR)
# From the text: (§1) The mRNA expression levels of the osteoblast differentiation factor and the adipocyte differentiation factor in the cells treated with the NK11 compound were investigated.
# (§2) First, the expression level of the osteoblast differentiation factor ALP was investigated while differentiating the C3H10T1/2 cells into osteoblasts in the same manner as in […]. Also, the expression levels of the adipocyte differentiation factors PPARγ, aP2 and CD36 compound were investigated while differentiating the C3H10T1/2 cells into adipocytes in the same manner as in Test Example 1.
# (§3) Total RNA was extracted using TRIzol (Invitrogen). 1 μg of the isolated RNA was synthesized into cDNA by adding random primers, dNTP and PrimeScript™ reverse transcriptase (Takara). The synthesized cDNA was subjected to real-time PCR using primers and SYBR Premix Ex Taq (Takara).
# [4] = tested on: ALP mRNA in C3H10T1/2 cells; assay: mRNA expression of osteoblast differentiation factor ALP (real-time PCR); details: for expression level of ALP, osteogenesis marker (mRNA): Test Example 3: NK11 at 1 μM, other compounds at 5 μM
# From the text: as §1, §2, §3
# [5] = Test Example 3: NK11 at 1 μM, other compounds at 5 μM, vs negative control group (DMSO)
# [6] = Test Example 3: NK11 at 1 μM, other compounds at 5 μM
# [7] = 0.1, 0.5, 1 and 5 μM, 9 days differentiation, compared to DMSO-treated negative control
smiles,measurement,setting,value
COC(=O)[C@@H]1[C@@H](C(=O)OC)[C@H](c2cc(OC)c(O)c(OC)c2)O[C@H]1c1cc(OC)c(O)c(OC)c1 [Chemical Formula 2],ALP production,C3H10T1/2 cells [1]; [5],no difference in ALP production from the negative control group (DMSO)
same,effect of inhibiting adipocyte differentiation,C3H10T1/2 cells [2],no difference in the effect of inhibiting adipocyte differentiation from the negative control group (DMSO)
same,"expression levels of the adipocyte-related genes CD36, aP2 and PPARγ",[3]; [6],no effect
same,"expression level of ALP, osteogenesis marker (mRNA)",[4],no effect
COCOc1c(OC)cc([C@@H]2O[C@@H](c3cc(OC)c(OCOC)c(OC)c3)[C@H](CO)[C@H]2CO)cc1OC [Chemical Formula 4],ALP production,C3H10T1/2 cells [1]; [5],no difference in ALP production from the negative control group (DMSO)
same,effect of inhibiting adipocyte differentiation,C3H10T1/2 cells [2],no difference in the effect of inhibiting adipocyte differentiation from the negative control group (DMSO)
same,"expression levels of the adipocyte-related genes CD36, aP2 and PPARγ",[3]; [6],no effect
same,"expression level of ALP, osteogenesis marker (mRNA)",[4],no effect
COc1cc([C@@H]2O[C@@H](c3cc(OC)c(O)c(OC)c3)[C@H](COC(=O)/C=C/c3ccc(O)cc3)[C@H]2COC(=O)/C=C\c2ccc(O)cc2)cc(OC)c1O [Chemical Formula 8],ALP production,C3H10T1/2 cells [1]; [7],increased ALP production in a concentration-dependent manner
same,fat production by adipocytes (Oil Red O),C3H10T1/2 cells [2]; [7],inhibited fat production by adipocytes in a concentration-dependent manner
same,"expression levels of the adipocyte-related genes CD36, aP2 and PPARγ","[3]; 0.1, 0.5, 1 and 5 μM, mRNA, real-time PCR","decreased the expression levels of the adipocyte-related genes CD36, aP2 and PPARγ in a concentration-dependent manner"
same,"expression of ALP, osteogenesis marker (mRNA)",[4]; at the concentration of 5 μM,expressed highly
COc1cc([C@@H]2O[C@@H](c3cc(OC)c(O)c(OC)c3)[C@H](COC(=O)/C=C/c3ccccc3)[C@H]2COC(=O)/C=C/c2ccccc2)cc(OC)c1O [Chemical Formula 9],ALP production,C3H10T1/2 cells [1]; [5],significant effect of promoting ALP production although slightly lower than that of NK11
same,ALP production as compared to the NK11 compound,C3H10T1/2 cells [1]; Test Example 3: compound at 5 μM vs NK11 at 1 μM,about 2 times
same,effect of inhibiting adipocyte differentiation,C3H10T1/2 cells [2],showed the effect of inhibiting adipocyte differentiation as the NK11 compound
same,"expression levels of the adipocyte-related genes CD36, aP2 and PPARγ",[3]; [6],decreased
same,"expression level of ALP, osteogenesis marker (mRNA)",[4],high
COc1cc([C@@H]2O[C@@H](c3cc(OC)c(O)c(OC)c3)[C@H](CO)[C@H]2CO)cc(OC)c1O [Chemical Formula 10],ALP production,C3H10T1/2 cells [1]; [5],no difference in ALP production from the negative control group (DMSO)
same,effect of inhibiting adipocyte differentiation,C3H10T1/2 cells [2],no difference in the effect of inhibiting adipocyte differentiation from the negative control group (DMSO)
same,"expression levels of the adipocyte-related genes CD36, aP2 and PPARγ",[3]; [6],no effect
same,"expression level of ALP, osteogenesis marker (mRNA)",[4],no effect
COc1cc([C@@H]2O[C@@H](c3cc(OC)c(O)c(OC)c3)[C@H](COC(C)=O)[C@H]2COC(C)=O)cc(OC)c1O [Chemical Formula 11],ALP production,C3H10T1/2 cells [1]; [5],no difference in ALP production from the negative control group (DMSO)
same,effect of inhibiting adipocyte differentiation,C3H10T1/2 cells [2],no difference in the effect of inhibiting adipocyte differentiation from the negative control group (DMSO)
same,"expression levels of the adipocyte-related genes CD36, aP2 and PPARγ",[3]; [6],no effect
same,"expression level of ALP, osteogenesis marker (mRNA)",[4],no effect

# — US10494356B2, “Compound promoting osteoblast differentiation and inhibiting adipocyte differentiation, preparation method thereof and application thereof” (SUNG KYUN BIOTECH CO., LTD., priority 2016, dated 2019)
